Target: cathepsin B (Homo sapiens, UniProt P07858)
Test: Incubation of Agent 6 with cathepsin B; product read by colour, MSOT and absorbance
Type: biochemical
Conditions: pH 6.8, 37° C., overnight
Description: We incubated 2.22 mg/mL ([…], 0.1 mL) of Agent 6 with 2 units of cathepsin B at pH 6.8 and at 37° C. overnight. Although cathepsin B is typically considered to be an endoprotease, this enzyme can work as an exoprotease at lower pH relative to physiological pH 7.4. Also, the extracellular tumor microenvironment is known to be acidic, so that pH 6.8 is a better representation of tumor conditions.
Other samples of were prepared at 1.66, 1.11, 0.84, and 0.55 mg/mL. These solutions were inserted into a customized phantom for a multi spectral optoacoustic imaging instrument (MSOT; also known as photoacoustic imaging) (InVision instrument, iThera Medical). FIG. 12A-FIG. 12D present MSOT or absorbance spectra data for the various concentrations.
The phantoms were imaged at 700-900 nm absorbance wavelengths in 2 nm steps. (FIG. 12A). The samples were also analyzed with a spectrofluorometer with absorbance through the same wavelength range (FIG. 12B), which matched the spectral profile and relative signal intensities of the MSOT spectra. The spectra were broad and featureless, which is expected for a melanin-based product. The signal to noise ratio (SNR) scaled with the concentration of the reactant, providing validation that the MSOT and absorbance signals were derived from the product and was not an artifact of the solution or imaging instrument (FIG. 12C, FIG. 12D).

CC(=O)NC(Cc1ccccc1)C(=O)NC(CCCCN)C(=O)Nc1ccc(COc2cc3cc[nH]c3cc2O)cc1 (centres unmarked) [Agent 6]
colour of the resulting solution (indicating melanin produced after cleavage by cathepsin B) (2.22 mg/mL Agent 6, 2 units of cathepsin B): light gray color
cleavage by cathepsin B to a melanin-based product detectable by MSOT (MSOT 700-900 nm, preliminary results): cleaved by cathepsin B to create a melanin-based product that can be detected by MSOT
